Article PMC11129182, “Development of Inhibitors, Probes, and PROTAC Provides a Complete Toolbox to Study PARK7 in the Living Cell” (Journal of Medicinal Chemistry, 2024)

The molecules below were run against T1, PARK7 (Homo sapiens, UniProt Q99497) (assay: High-throughput screen of the crude compound library, PARK7 fluorescence polarization (FP) assay with FP reagent JYQ-107). Conditions: 1.25 µM, crude compound library; read-out: HTS FP assay %Inhibition (1.25 µM).
T1 sequence (Q99497 1-189): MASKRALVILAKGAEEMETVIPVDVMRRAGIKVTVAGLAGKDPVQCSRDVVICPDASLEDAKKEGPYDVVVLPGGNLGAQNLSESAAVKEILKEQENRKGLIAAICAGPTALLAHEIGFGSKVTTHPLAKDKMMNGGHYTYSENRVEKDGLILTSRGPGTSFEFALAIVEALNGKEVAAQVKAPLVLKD
Type: biochemical
Source text: Therefore, taking JYQ-88 as a starting point, we conducted an optimization to further improve the molecule in terms of inhibitory potency, specificity, and cellular uptake. […] First, a small tailored library was designed and synthesized to investigate whether the introduction of larger, hydrophilic substituents on JYQ-88 would enhance the interaction with the PARK7 pocket. […] The second approach involved the generation of a compound library containing diverse substituents at the azidomethyl position. […] We next performed a high-throughput screen of this crude compound library using our in-house developed PARK7 fluorescence polarization (FP) assay.[15]

| SMILES | inhibition at 1.25 µM [%] |
| --- | --- |
| N#CN1CC[C@@H](C(=O)Nc2nc3c(s2)CN(C(=O)Cc2cnn(-c4ccccc4)c2)CC3)C1 [compound 148] | 80.2 |
| CCS(=O)(=O)N1CCC(C(=O)N2CCc3nc(NC(=O)[C@@H]4CCN(C#N)C4)sc3C2)(c2ccccc2)CC1 [compound 150] | 62.5 |
| N#CN1CC[C@@H](C(=O)Nc2nc3c(s2)CN(C(=O)c2ccc(CNS(=O)(=O)c4ccc(F)c(F)c4F)cc2)CC3)C1 [compound 151] | 81.1 |
| N#CN1CC[C@@H](C(=O)Nc2nc3c(s2)CN(C(=O)c2csc(-c4cnc[nH]4)n2)CC3)C1 [compound 154] | 77.3 |
| Cc1cc(C(=O)N2CCc3nc(NC(=O)[C@@H]4CCN(C#N)C4)sc3C2)c(C)n1C1CC1 [compound 155] | 47.7 |
| N#CN1CC[C@@H](C(=O)Nc2nc3c(s2)CN(C(=O)c2ccc(Cn4cncn4)cc2)CC3)C1 [compound 159] | 80.2 |
| Cc1nc(-c2c[nH]c(C(=O)N3CCc4nc(NC(=O)[C@@H]5CCN(C#N)C5)sc4C3)c2)cs1 [compound 161] | 86.4 |
| N#CN1CC[C@@H](C(=O)Nc2nc3c(s2)CN(C(=O)c2ccc(-c4ccccc4)o2)CC3)C1 [compound 166] | 87.3 |
| N#CN1CC[C@@H](C(=O)Nc2nc3c(s2)CN(C(=O)C2=NNC(=O)C2c2ccccc2)CC3)C1 (stereo partly drawn) [compound 168] | 80.3 |
| Cc1nn(-c2ccc(C(F)(F)F)cn2)c(C)c1CC(=O)N1CCc2nc(NC(=O)[C@@H]3CCN(C#N)C3)sc2C1 [compound 169] | 77.8 |
| N#CN1CC[C@@H](C(=O)Nc2nc3c(s2)CN(C(=O)c2ccc(-c4cnco4)cc2)CC3)C1 [compound 171] | 77.5 |
| Cn1nc(C(=O)N2CCc3nc(NC(=O)[C@@H]4CCN(C#N)C4)sc3C2)cc1-c1cccnc1 [compound 172] | 86.7 |
| Cc1cc(COc2ccc(C(=O)N3CCc4nc(NC(=O)[C@@H]5CCN(C#N)C5)sc4C3)cc2Br)no1 [compound 173] | 72.5 |
| COc1ccc(C(=O)N2CCc3nc(NC(=O)[C@@H]4CCN(C#N)C4)sc3C2)cc1S(=O)(=O)NCCc1ccccn1 [compound 175] | 78.6 |
| Cc1onc(-c2ccccn2)c1C(=O)N1CCc2nc(NC(=O)[C@@H]3CCN(C#N)C3)sc2C1 [compound 176] | 68.5 |
| N#CN1CC[C@@H](C(=O)Nc2nc3c(s2)CN(C(=O)C(F)(F)n2cc(-c4ccccc4)nn2)CC3)C1 [compound 178] | 45.6 |
| N#CN1CC[C@@H](C(=O)Nc2nc3c(s2)CN(C(=O)c2ccnc(N4CCOCC4)n2)CC3)C1 [compound 180] | 87.3 |
| CN(Cc1ccccc1)S(=O)(=O)c1ccc(C(=O)N2CCc3nc(NC(=O)[C@@H]4CCN(C#N)C4)sc3C2)cc1 [compound 183] | 65.5 |
| Cn1nc(-c2cccnc2)cc1C(=O)N1CCc2nc(NC(=O)[C@@H]3CCN(C#N)C3)sc2C1 [compound 184] | 86.9 |
| N#CN1CC[C@@H](C(=O)Nc2nc3c(s2)CN(C(=O)c2cnoc2-c2ccccc2C(F)(F)F)CC3)C1 [compound 185] | 77.5 |
| N#CN1CC[C@@H](C(=O)Nc2nc3c(s2)CN(C(=O)c2cn(CC4CCCO4)nn2)CC3)C1 (stereo partly drawn) [compound 186] | 83.8 |
| Cn1cc(-c2cc[nH]n2)c(C(=O)N2CCc3nc(NC(=O)[C@@H]4CCN(C#N)C4)sc3C2)n1 [compound 187] | 59.2 |
| N#CN1CC[C@@H](C(=O)Nc2nc3c(s2)CN(C(=O)c2cc(Cn4cc(Cl)cn4)cs2)CC3)C1 [compound 191] | 86.7 |
| Cc1nc(COc2ccc(C(=O)N3CCc4nc(NC(=O)[C@@H]5CCN(C#N)C5)sc4C3)cc2)no1 [compound 192] | 84.8 |
| COc1ccc(C(=O)N2CCc3nc(NC(=O)[C@@H]4CCN(C#N)C4)sc3C2)cc1S(=O)(=O)NCc1ccccn1 [compound 194] | 80.2 |
| Cc1nc(-c2cc(C)n(CCC(=O)N3CCc4nc(NC(=O)[C@@H]5CCN(C#N)C5)sc4C3)c2C)cs1 [compound 196] | 61.7 |
| N#CN1CC[C@@H](C(=O)Nc2nc3c(s2)CN(C(=O)c2ccc(-c4cccs4)[nH]c2=O)CC3)C1 [compound 200] | 72.4 |
| N#CN1CC[C@@H](C(=O)Nc2nc3c(s2)CN(C(=O)Cc2csc(-c4nnc[nH]4)n2)CC3)C1 [compound 202] | 81 |
| N#CN1CC[C@@H](C(=O)Nc2nc3c(s2)CN(C(=O)c2ccc(-n4cccn4)cc2)CC3)C1 [compound 203] | 70.1 |
| Cc1ccccc1COc1cccc(CC(=O)N2CCc3nc(NC(=O)[C@@H]4CCN(C#N)C4)sc3C2)c1 [compound 204] | 73.6 |

The next lines start with the values.

| inhibition at 1.25 µM [%] | SMILES |
| --- | --- |
| 82.4 | N#CN1CC[C@@H](C(=O)Nc2nc3c(s2)CN(C(=O)c2ccc(OCn4cc(Cl)cn4)cc2)CC3)C1 [compound 147] |
| 64.4 | CC1CCCC(N2CC(C(=O)N3CCc4nc(NC(=O)[C@@H]5CCN(C#N)C5)sc4C3)CC2=O)C1C (stereo partly drawn) [compound 153] |
| 83.5 | CN(CC(=O)N1CCCC(C(=O)N2CCc3nc(NC(=O)[C@@H]4CCN(C#N)C4)sc3C2)C1)c1ccc(Cl)cn1 (stereo partly drawn) [compound 157] |
| 69.2 | N#CN1CC[C@@H](C(=O)Nc2nc3c(s2)CN(C(=O)C2CCN(C(=O)c4ccccn4)CC2)CC3)C1 [compound 158] |
| 74.9 | N#CN1CC[C@@H](C(=O)Nc2nc3c(s2)CN(C(=O)c2cc(Cl)nc(N4CCCC4)c2)CC3)C1 [compound 160] |
| 82.9 | N#CN1CC[C@@H](C(=O)Nc2nc3c(s2)CN(C(=O)Cc2ccn(-c4ccccc4)n2)CC3)C1 [compound 162] |
| 69.5 | N#CN1CC[C@@H](C(=O)Nc2nc3c(s2)CN(C(=O)c2cccnc2N2CCCCC2)CC3)C1 [compound 167] |
| 62.7 | Cc1ccc(N2CCCC(C(=O)N3CCc4nc(NC(=O)[C@@H]5CCN(C#N)C5)sc4C3)C2)nc1 (stereo partly drawn) [compound 170] |
| 78.6 | N#CN1CC[C@@H](C(=O)Nc2nc3c(s2)CN(C(=O)C(=O)N2CCN(c4ccccc4)CC2)CC3)C1 [compound 177] |
| 81 | N#CN1CC[C@@H](C(=O)Nc2nc3c(s2)CN(C(=O)C2Cc4ccccc42)CC3)C1 (stereo partly drawn) [compound 179] |
| 72.7 | N#CN1CC[C@@H](C(=O)Nc2nc3c(s2)CN(C(=O)C2COCCN2C(=O)OCc2ccccc2)CC3)C1 (stereo partly drawn) [compound 181] |
| 81.9 | N#CN1CC[C@@H](C(=O)Nc2nc3c(s2)CN(C(=O)c2cncc(N4CCCC4)n2)CC3)C1 [compound 182] |
| 66.8 | CN1CCN(C(=O)[C@@H]2[C@@H](C(=O)N3CCc4nc(NC(=O)[C@@H]5CCN(C#N)C5)sc4C3)C2(C)C)CC1 [compound 189] |
| 51.8 | Cc1csc(N2CCC(C(=O)N3CCc4nc(NC(=O)[C@@H]5CCN(C#N)C5)sc4C3)CC2)n1 [compound 190] |
| 73 | CN(Cc1ccnn1C)C(=O)C1CCCCC1C(=O)N1CCc2nc(NC(=O)[C@@H]3CCN(C#N)C3)sc2C1 (stereo partly drawn) [compound 193] |
| 72.4 | N#CN1CC[C@@H](C(=O)Nc2nc3c(s2)CN(C(=O)c2ccc(CN4CCCCCC4)s2)CC3)C1 [compound 195] |
| 65.2 | Cc1noc(C)c1S(=O)(=O)N1CCC(C(=O)N2CCc3nc(NC(=O)[C@@H]4CCN(C#N)C4)sc3C2)CC1 [compound 198] |
| 72.2 | N#CN1CC[C@@H](C(=O)Nc2nc3c(s2)CN(C(=O)c2cc(N4CCOCC4)ccn2)CC3)C1 [compound 201] |
